Test results as given in US20220340916A1, “METHODS FOR TRANSFORMING WHEAT EXPLANTS AND COMPOSITIONS THEREFOR” (MONSANTO TECHNOLOGY LLC, priority 2013, published 2022).

Row | SMILES | effect of soaking WDSDEs on oxygen consumption (wheat WDSDEs) | effect on oxygen consumption when added to the reaction chamber during an oxygen measurement (wheat WDSDEs) | viability of WDSDEs produced from treated seed (WDSDEs) | cleanliness of WDSDEs excised from treated seed (WDSDEs; seed sanitization, 10% Clorox bleach, ethanol used cold (~0° C.)) | effect of ethanol exposure on intact seed germination on media (wheat seed; 70% ethanol, FIG. 2) | germination of intact seeds as measured by root and shoot development on media (wheat seed; sanitization treatments involving ethanol, FIG. 1)
1 | O=C(NO)c1ccccc1O [SHAM, salicylhydroxamic acid] | No effect | Very little effect | – | – | – | –
2 | CCO [ethanol] | – | – | acceptable | less efficient | time-dependent effect | reduced germination
